Converted amounts (≈) assume the structure as drawn. Starred links: 1 amine or outer side, 2 acyl side, 3 side chain; linkers in the order of their positions; H or OH if unused. Positions of bridges follow the written chain, without caps; N, C: chain ends. Non-standard residues stand in square brackets, D forms with d. Residues, ends and D or L forms follow the SMILES beside them. *: point of attachment. hTyr(3S-OH,4S-OH,3'-OSO3H) = N[C@H](C(=O)O)[C@H](O)[C@@H](O)c1ccc(O)c(OS(=O)(=O)O)c1; Orn(4R-OH,5R-OH) = O=C([C@H](C[C@@H](O)[C@@H](O)N[*:3])N[*:1])[*:2]; Pro(3S-OH,4S-Me) = C[C@H]1CN[C@H](C(=O)O)[C@H]1O; X1 = CCCCCOc1ccc(-c2cc(-c3ccc(C(=O)*)cc3)no2)cc1; Gln(3R-OH) = NC(=O)C[C@@H](O)[C@H](N)C(=O)O; Hyp = O=C(O)[C@@H]1C[C@@H](O)CN1
Tests used:
[1] = AUC (0 to 24 hrs) in candidiasis patient at 8 mg/kg, iv by HPLC; format: ADME, organism-based; design: time < 24 hr, dose 8 mg/kg, route intravenous; conditions: human, plasma
[2] = AUC (0 to 24 hrs) in candidiasis patient at 10 mg/kg, iv by HPLC; format: ADME, organism-based; design: time < 24 hr, dose 10 mg/kg, route intravenous; conditions: human, plasma
Candida albicans = test: Antifungal activity against Candida albicans; format: functional
[3] = AUC (0 to 24 hrs) in candidiasis patient at 12 mg/kg, iv by HPLC; format: ADME, organism-based; design: time < 24 hr, dose 12 mg/kg, route intravenous; conditions: human, plasma
[4] = Dose normalized clearance in iv dosed adult human by HPLC; format: ADME, organism-based; conditions: in vivo
[5] = Volume of distribution in iv dosed human infant by HPLC; format: ADME, organism-based; conditions: in vivo
[6] = Ratio of AUC in neonates with Candida albican infection to MIC for Candida albicans; format: functional
[7] = Volume of distribution in iv dosed adult human by HPLC; format: ADME, organism-based; conditions: in vivo

## CCCCCOc1ccc(-c2cc(-c3ccc(C(=O)N[C@H]4C[C@@H](O)[C@@H](O)NC(=O)[C@@H]5[C@@H](O)[C@@H](C)CN5C(=O)[C@H]([C@H](O)CC(N)=O)NC(=O)[C@H]([C@H](O)[C@@H](O)c5ccc(O)c(OS(=O)(=O)O)c5)NC(=O)[C@@H]5C[C@@H](O)CN5C(=O)[C@H]([C@@H](C)O)NC4=O)cc3)no2)cc1 [MICAFUNGIN] (X1-[Orn(4R-OH,5R-OH)]T[Hyp][hTyr(3S-OH,4S-OH,3'-OSO3H)][Gln(3R-OH)][Pro(3S-OH,4S-Me)]; lactam 1-C)
[1]
  AUC(0-t) at 24 h: < 166 µg·h/mL
[2]
  AUC(0-t) at 24 h: < 166 µg·h/mL
Candida albicans
  MIC: 0.125 µg/mL (≈ 0.0984 µM)
[3]
  AUC(0-t) at 24 h: < 166 µg·h/mL
[4]
  clearance: 19.5 mL/min
[5]
  Vd: 10.3 L
[6]
  Ratio: 1330
[7]
  Vd: 10.4 L
